In ChEMBL document CHEMBL5120862, “Novel non-covalent LSD1 inhibitors endowed with anticancer effects in leukemia and solid tumor cellular models” (Eur J Med Chem, 2022):
Calls of active or inactive are those of the source. The rule behind the calls is not given here.

Key:
[1] = molecular target: T1, Histone-lysine N-methyltransferase EHMT2 (Homo sapiens, UniProt Q96KQ7); experiment: Inhibition of G9a (unknown origin) assessed as reduction in substrate methylation using histone H3 and SAM as substrate measured after 15 to 60 mins by microfluidic capillary electrophoresis analysis
T1 sequence (Q96KQ7 whole entry): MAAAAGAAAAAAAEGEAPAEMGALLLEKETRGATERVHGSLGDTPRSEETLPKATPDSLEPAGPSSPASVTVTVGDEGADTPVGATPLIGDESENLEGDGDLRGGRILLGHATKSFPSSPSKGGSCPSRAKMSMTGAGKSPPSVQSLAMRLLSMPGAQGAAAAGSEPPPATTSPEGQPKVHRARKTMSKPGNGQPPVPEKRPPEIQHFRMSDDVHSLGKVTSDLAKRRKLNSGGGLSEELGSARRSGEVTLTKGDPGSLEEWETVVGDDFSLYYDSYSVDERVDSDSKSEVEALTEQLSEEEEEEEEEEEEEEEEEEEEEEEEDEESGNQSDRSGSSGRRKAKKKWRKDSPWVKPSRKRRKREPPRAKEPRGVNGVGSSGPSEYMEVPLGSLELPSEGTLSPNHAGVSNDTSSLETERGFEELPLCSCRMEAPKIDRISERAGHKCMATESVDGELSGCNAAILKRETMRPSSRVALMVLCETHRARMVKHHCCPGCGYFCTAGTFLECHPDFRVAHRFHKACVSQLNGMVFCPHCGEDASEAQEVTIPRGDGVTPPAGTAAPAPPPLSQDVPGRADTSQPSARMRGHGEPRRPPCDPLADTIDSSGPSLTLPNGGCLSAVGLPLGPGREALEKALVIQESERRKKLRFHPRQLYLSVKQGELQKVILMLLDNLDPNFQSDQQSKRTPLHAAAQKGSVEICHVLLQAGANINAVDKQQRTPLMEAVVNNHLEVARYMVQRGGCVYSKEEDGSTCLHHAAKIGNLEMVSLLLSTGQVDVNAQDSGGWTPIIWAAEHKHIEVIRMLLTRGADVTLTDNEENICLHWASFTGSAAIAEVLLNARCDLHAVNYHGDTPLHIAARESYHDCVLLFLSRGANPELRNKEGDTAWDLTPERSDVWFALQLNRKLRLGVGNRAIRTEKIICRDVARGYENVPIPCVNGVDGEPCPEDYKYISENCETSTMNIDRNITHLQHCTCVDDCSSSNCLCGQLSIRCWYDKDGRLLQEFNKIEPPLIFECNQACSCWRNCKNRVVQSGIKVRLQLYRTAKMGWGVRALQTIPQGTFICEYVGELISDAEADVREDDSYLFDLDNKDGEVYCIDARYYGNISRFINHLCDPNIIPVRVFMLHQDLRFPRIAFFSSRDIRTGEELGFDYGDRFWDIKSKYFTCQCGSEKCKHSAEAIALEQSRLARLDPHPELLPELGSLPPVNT

RD [2] = experiment: Antiproliferative activity against human RD cells assessed as inhibition of cell growth incubated for 72 hrs; type: functional, cell-based
[3] = Cytotoxicity against human derived mesenchymal stem cells assessed as residual cell viability at 1.25 uM measured after 72 hrs relative to control; type: toxicity, cell-based; settings: read-out: Activity
[4] = molecular target: Lysine-specific histone demethylase 1A (Homo sapiens) (UniProt O60341); experiment: Inhibition of LSD1 in human MV4-11 cells assessed as increase in H3K4me2 level at 0.2 to […] incubated for 24 hrs by Western blot analysis; type: cell-based; settings: dose 0.2-2.5 µM
MV4-11 [5] = experiment: Antiproliferative activity against human MV4-11 cells assessed as inhibition of cell growth at 0.2 to […] incubated for 72 hrs by trypan blue staining based analysis; type: functional; settings: dose 0.2-2.5 µM
THP-1 = experiment: Antiproliferative activity against human THP-1 cells assessed as inhibition of cell growth incubated for 144 hrs by CellTiter-Glo luminescent cell viability assay; type: functional, cell-based; settings: THP-1, 144 h
RD [6] = experiment: Antiproliferative activity against human RD cells assessed as reduction in live cells at 2 uM incubated for 72 hrs by calceinAM/propidium iodide staining based fluorescence microscopy; type: functional, cell-based
RD [7] = experiment: Antiproliferative activity against human RD cells assessed as inhibition of cell growth incubated for 144 hrs; type: functional, cell-based
RD [8] = experiment: Induction of apoptosis in human RD cells assessed as increase in caspase 3/7 level at 2 uM incubated for 24 hrs; type: functional, cell-based
MV4-11 [9] = experiment: Induction of cell cycle arrest in human MV4-11 cells assessed as accumulation of cells at G1 phase at 0.2 to […] incubated for 24 hrs; type: functional, cell-based; settings: dose 0.2-2.5 µM
[10] = molecular target: Lysine-specific histone demethylase 1A (Homo sapiens) (UniProt O60341); experiment: Inhibition of LSD1 in human MV4-11 cells assessed as increase in CD86 expression level incubated for 24 hrs by qRT-PCR analysis; type: cell-based; settings: dose 0.2-1 µM
[11] = molecular target: Histone-lysine N-methyltransferase, H3 lysine-79 specific (Homo sapiens) (UniProt Q8TEK3); experiment: Inhibition of […] (unknown origin) using [3H]SAM and HeLa oligo nucleosomes as substrates at 100 uM incubated for 1 hr relative to control
MV4-11 [12] = experiment: Antiproliferative activity against human MV4-11 cells assessed as inhibition of cell growth at 1 uM incubated for 144 hrs by trypan blue staining based analysis; type: functional
[13] = molecular target: Histone-lysine N-methyltransferase EZH2 (Homo sapiens) (UniProt Q15910); experiment: Inhibition of EZH2 (unknown origin) using [3H]SAM and chicken core histone as substrates at 100 uM incubated for 1 hr relative to control
RD [14] = experiment: Antiproliferative activity against human RD cells assessed as inhibition of cell growth incubated for 24 hrs; type: functional, cell-based
[15] = Cytotoxicity against HMEC cells assessed as residual cell viability at 1 uM incubated for 72 hrs by MTT assay relative to control; type: toxicity, cell-based; settings: human, read-out: Activity
SJRH30 [16] = experiment: Antiproliferative activity against human Rh30 cells assessed as inhibition of cell growth incubated for 144 hrs; type: functional, cell-based; settings: SJRH30, 144 h
[17] = Cytotoxicity against human AHH-1 cells assessed as residual cell viability at 1 uM measured after 72 hrs by MTT assay relative to control; type: toxicity, cell-based; settings: read-out: Activity
SJRH30 [18] = experiment: Antiproliferative activity against human Rh30 cells assessed as inhibition of cell growth incubated for 72 hrs; type: functional, cell-based; settings: SJRH30, 72 h
SJRH30 [19] = experiment: Antiproliferative activity against human Rh30 cells assessed as reduction in live cells at 2 uM incubated for 24 hrs by calceinAM/propidium iodide staining based fluorescence microscopy; type: functional, cell-based
[20] = molecular target: Lysine-specific histone demethylase 1A (Homo sapiens) (UniProt O60341); experiment: Inhibition of LSD1 in human Rh30 cells assessed as increase in H3K4me2 level at 1 uM incubated for 48 hrs by Western blot analysis; type: cell-based
[21] = Cytotoxicity against HMEC cells assessed as residual cell viability at 0.5 uM incubated for 72 hrs by MTT assay relative to control; type: toxicity, cell-based; settings: human, read-out: Activity

Histone-lysine N-methyltransferase EZH2 (Homo sapiens), sequence (Q15910 whole entry, looked up): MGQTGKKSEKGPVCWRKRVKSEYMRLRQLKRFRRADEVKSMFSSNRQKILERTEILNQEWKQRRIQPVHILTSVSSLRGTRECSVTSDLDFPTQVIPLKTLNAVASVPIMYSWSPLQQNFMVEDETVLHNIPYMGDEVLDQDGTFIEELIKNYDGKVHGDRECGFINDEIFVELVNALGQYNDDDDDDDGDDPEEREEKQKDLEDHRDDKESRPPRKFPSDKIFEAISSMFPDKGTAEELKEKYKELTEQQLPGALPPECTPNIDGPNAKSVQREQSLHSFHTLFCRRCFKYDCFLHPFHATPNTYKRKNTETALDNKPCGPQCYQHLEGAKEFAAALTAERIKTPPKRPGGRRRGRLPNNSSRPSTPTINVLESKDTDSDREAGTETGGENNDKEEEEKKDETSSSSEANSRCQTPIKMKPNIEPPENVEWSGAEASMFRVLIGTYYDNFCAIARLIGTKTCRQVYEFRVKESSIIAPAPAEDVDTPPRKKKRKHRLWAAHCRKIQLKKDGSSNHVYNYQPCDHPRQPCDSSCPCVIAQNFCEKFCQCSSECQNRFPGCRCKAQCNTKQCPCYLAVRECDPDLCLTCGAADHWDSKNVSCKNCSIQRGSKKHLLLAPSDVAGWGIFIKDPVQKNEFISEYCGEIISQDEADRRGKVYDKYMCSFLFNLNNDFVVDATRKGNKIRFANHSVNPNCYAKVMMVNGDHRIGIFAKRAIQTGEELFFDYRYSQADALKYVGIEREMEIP
Histone-lysine N-methyltransferase, H3 lysine-79 specific (Homo sapiens), sequence (Q8TEK3 whole entry, looked up): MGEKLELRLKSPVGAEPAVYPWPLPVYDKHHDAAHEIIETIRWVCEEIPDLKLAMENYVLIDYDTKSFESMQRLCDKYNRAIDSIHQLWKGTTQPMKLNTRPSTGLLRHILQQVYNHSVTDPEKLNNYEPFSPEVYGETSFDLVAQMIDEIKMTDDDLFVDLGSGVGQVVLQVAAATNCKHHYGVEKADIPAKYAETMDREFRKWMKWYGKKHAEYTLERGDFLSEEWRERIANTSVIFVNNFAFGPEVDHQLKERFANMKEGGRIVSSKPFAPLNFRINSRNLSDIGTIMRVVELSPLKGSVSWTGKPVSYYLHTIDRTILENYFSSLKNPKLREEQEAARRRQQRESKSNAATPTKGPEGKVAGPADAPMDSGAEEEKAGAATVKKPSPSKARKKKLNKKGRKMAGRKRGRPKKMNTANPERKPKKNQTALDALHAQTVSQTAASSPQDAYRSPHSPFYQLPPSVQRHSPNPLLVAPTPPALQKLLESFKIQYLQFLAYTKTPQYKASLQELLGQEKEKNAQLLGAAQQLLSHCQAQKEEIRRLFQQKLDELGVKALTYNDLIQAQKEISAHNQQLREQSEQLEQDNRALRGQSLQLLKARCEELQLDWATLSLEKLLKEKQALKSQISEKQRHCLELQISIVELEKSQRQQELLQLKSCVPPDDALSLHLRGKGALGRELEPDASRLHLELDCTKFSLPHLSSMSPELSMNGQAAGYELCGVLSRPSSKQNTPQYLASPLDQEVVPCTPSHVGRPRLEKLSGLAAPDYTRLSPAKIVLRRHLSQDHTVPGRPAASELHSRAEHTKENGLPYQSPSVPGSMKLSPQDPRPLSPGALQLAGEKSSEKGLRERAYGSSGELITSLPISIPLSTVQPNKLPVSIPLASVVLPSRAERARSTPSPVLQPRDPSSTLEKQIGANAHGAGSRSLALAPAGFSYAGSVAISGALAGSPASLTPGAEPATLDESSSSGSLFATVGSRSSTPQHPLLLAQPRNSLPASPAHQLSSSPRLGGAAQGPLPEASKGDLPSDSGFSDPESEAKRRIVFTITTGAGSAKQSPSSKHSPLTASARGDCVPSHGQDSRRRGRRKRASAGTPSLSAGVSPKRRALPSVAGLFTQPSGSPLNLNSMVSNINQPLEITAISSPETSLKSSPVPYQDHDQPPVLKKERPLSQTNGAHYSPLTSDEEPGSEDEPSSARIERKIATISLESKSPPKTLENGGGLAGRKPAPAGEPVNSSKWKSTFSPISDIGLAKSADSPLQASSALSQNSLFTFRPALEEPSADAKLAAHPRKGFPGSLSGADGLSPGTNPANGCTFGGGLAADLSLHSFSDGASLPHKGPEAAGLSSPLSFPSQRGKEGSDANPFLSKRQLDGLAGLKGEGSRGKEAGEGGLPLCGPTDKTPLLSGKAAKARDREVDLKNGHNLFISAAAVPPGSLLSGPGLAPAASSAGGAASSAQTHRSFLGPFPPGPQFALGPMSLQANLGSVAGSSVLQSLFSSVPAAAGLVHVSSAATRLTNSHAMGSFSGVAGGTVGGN

Ki [1]: 39400 nM
inhibition [4]: Active
IC50 (THP-1): 130 nM
inhibition [10]: Active
inhibition [11]: 22.6%
inhibition [13]: 1.8%
inhibition [20]: Active
Compound: COc1cc2c(NC3CCN(Cc4ccccc4)CC3)nc(NCCCN(C)C)nc2cc1OCc1ccccc1
IC50 (RD [2]): 850 nM
viability at 72 h, 1.25 µM [3]: 92%
inhibition (MV4-11 [5]): Active
Activity (RD [6]): Active
IC50 (RD [7]): 730 nM
Activity (RD [8]): Active
Activity (MV4-11 [9]): Active
inhibition (MV4-11 [12]): Active
IC50 (RD [14]): 1230 nM
viability at 72 h, 1 µM [15]: 76%
IC50 (SJRH30 [16]): 680 nM
viability at 72 h, 1 µM [17]: 90%
IC50 (SJRH30 [18]): 960 nM
Activity (SJRH30 [19]): Active
viability at 72 h, 0.5 µM [21]: 93%
